Laboratory results published in patent publication US20040176349A1, “Antibacterial composition” (priority 2001, published 2004).
In brackets after ≈: the same amount, converted by molar mass.

Columns and labels:
[1] = system: E. faecalis Phillips; test: MIC, microbroth dilution (NCCLS), Table 1; format: cell-based; conditions: compound alone; E. faecalis Phillips, vancomycin-susceptible
Experimental: (§1) The minimum inhibitory concentration (MIC) of the compounds was determined using the microbroth dilution technique in accordance with NCCLS guidelines, employing Mueller-Hinton broth (National Committee for Clinical Laboratory Standards, NCCLS, 1995 “Methods for dilution antimicrobial susceptibility tests for bacteria that grow aerobically”—approved standard M7-A5).
(§2) The compounds were tested in isolation, at different concentrations.

[2] = system: E. faecalis SFZ; test: MIC, microbroth dilution (NCCLS), Table 1; format: cell-based; conditions: compound alone; E. faecalis SFZ, vancomycin-susceptible
Experimental: as §1, §2

[3] = system: E. faecium NCTC 7171; test: MIC, microbroth dilution (NCCLS), Table 1; format: cell-based; conditions: compound alone; E. faecium NCTC 7171, vancomycin-susceptible
Experimental: as §1, §2

[4] = system: E. hirae ATCC 10541; test: MIC, microbroth dilution (NCCLS), Table 1; format: cell-based; conditions: compound alone; E. hirae ATCC 10541, vancomycin-susceptible
Experimental: as §1, §2

[5] = system: E. faecalis NCTC 5957; test: MIC, microbroth dilution (NCCLS), Table 1; format: cell-based; conditions: compound alone; E. faecalis NCTC 5957, vancomycin-susceptible
Experimental: as §1, §2

[6] = system: E. faecalis 24592; test: MIC, microbroth dilution (NCCLS), Table 1; format: cell-based; conditions: compound alone; E. faecalis 24592, vancomycin-susceptible
Experimental: as §1, §2

[7] = system: E. faecalis ATCC 10541; test: Checkerboard microdilution MIC with PFOB, Table 2; format: cell-based; conditions: E. faecalis ATCC 10541; alone
Text: The aim of the study was to detect any synergy between PFOB and the other antibiotics. For the purposes of the study, synergy was defined in accordance with the FIC (fractional inhibitory concentration) index, as disclosed by Lorian (1991, In “Antibiotics in Laboratory Medicine” 3rd edition, Eds. Williams & Wilkins; esp. p 434-443).

[8] = system: enterococcal penicillin binding proteins (PBPs); test: Radiolabelled penicillin competition assay for PBP affinity; set-up: species or system Enterococcus; conditions: in words
Experimental: Further experiments were conducted in an attempt to determine the mechanism of the unexpected synergy between antibiotics (as exemplified by Ceftazidime) and compounds in accordance with general formula I or II (as exemplified by PFOB). The affinity of PFOB for enterococcal penicillin binding proteins (PBPs) was investigated using a conventional radiolabelling assay (Boulton & Orr 1983 “Detection of bacterial penicillin binding proteins and their role in the interpretation of the mode of action of beta-lactam antibiotics” In “Antibiotics: Assessment of antimicrobial activity and resistance” Eds. Denver & Quesnel. Society for […], Technical Series 18, pp161-182, Academic Press”). In this assay, the inner bacterial membrane containing the PBPs was extracted, exposed to differing concentrations of test agent (i.e. PFOB) and excess radiolabelled penicillin, followed by separation and visualisation of the PBPs using gel electrophoresis and fluorography.

[9] = system: Enterococcus strains; test: MIC against Enterococcus strains, summary of Example 1; format: cell-based; conditions: compound alone; all strains of Table 1; in words
Experimental: as §1, §2

[10] = system: E.faecalis 78097 (van B); test: Checkerboard microdilution MIC with PFOB, Table 2; format: cell-based; conditions: E.faecalis 78097 (van B); alone
Text: (§3) The aim of the study was to detect any synergy between PFOB and the other antibiotics. For the purposes of the study, synergy was defined in accordance with the FIC (fractional inhibitory concentration) index, as disclosed by Lorian (1991, In “Antibiotics in Laboratory Medicine” 3rd edition, Eds. Williams & Wilkins; esp. p 434-443). In essence, if the combination of test compounds gives at least a 4-fold reduction in the FIC value for each compound, then a synergy may be considered to exist (i.e. FIC of the combination <0.5=synergy; FIC 0.5-2.0=“indifference”; and FIC >2=antagonism).
(§4) In Table 2, results in the checkerboard indicating synergy are hatched, and specific optimum synergistic combinations are boxed.

[11] = system: E. faecalis 5659 (vanA); test: Checkerboard microdilution MIC with PFOB, Table 2; format: cell-based; conditions: E. faecalis 5659 (vanA); alone
Text: as §3, §4

[12] = system: E. faecalis ATCC 29212; test: Checkerboard microdilution MIC with PFOB, Table 2; format: cell-based; conditions: E. faecalis ATCC 29212; alone
Text: as §3, §4

[13] = system: E. faecalis SFZ (vancomycin-sensitive isolate, VSE); test: Time-kill experiment (viable count); format: cell-based; conditions: FIG. 2, ceftazidime alone at 128 mg/L, PFOB alone at 64 mg/L
Text: FIG. 2 is a graph of Log viable count (cfu per ml) against time (in hours) for the VSE isolate in the presence or absence of the drugs. […] The isolates used in the Example are purely illustrative and not especially unusual.

[14] = system: VRE 300 1562; test: MIC, microbroth dilution (NCCLS), Table 1; format: cell-based, Enterococcus; conditions: compound alone; VRE 300 1562, vancomycin-resistant
Experimental: as §1, §2

[15] = system: VRE 300 2043; test: MIC, microbroth dilution (NCCLS), Table 1; format: cell-based, Enterococcus; conditions: compound alone; VRE 300 2043, vancomycin-resistant
Experimental: as §1, §2

[16] = system: VRE 1662; test: MIC, microbroth dilution (NCCLS), Table 1; format: cell-based, Enterococcus; conditions: compound alone; VRE 1662, vancomycin-resistant
Experimental: as §1, §2

[17] = system: VRE 300 1590; test: MIC, microbroth dilution (NCCLS), Table 1; format: cell-based, Enterococcus; conditions: compound alone; VRE 300 1590, vancomycin-resistant
Experimental: as §1, §2

For `C[C@@H](O)[C@H]1C(=O)N2C(C(=O)O)=C(C(C)(C)CCCN)O[C@H]12` [(1′R, 5R, 6R)-2-(4-amino-1,1-dimethylbutyl)-6-(1′-hydroxyethyl) oxapenem-3-carboxylic acid], which MIC [1] is on record?
The MIC was 32 µg/mL (≈ 107 µM).

And the MIC [2]?
Its MIC is 64 µg/mL (≈ 215 µM).

What about the MIC [3] of the same molecule?
Its MIC is 16 µg/mL (≈ 53.6 µM).

And the MIC [4]?
The MIC was 16 µg/mL (≈ 53.6 µM).

What about the MIC [5] of the same molecule?
Its MIC is 32 µg/mL (≈ 107 µM).

And the MIC [6]?
The MIC was 32 µg/mL (≈ 107 µM).

What about the “MIC (alone) of PFOB” value [7] of the same molecule?
The value was 16 µg/mL.

What about the “affinity for PBPs compared with clavulanic acid” value ([8]; FIG. 4A versus FIG. 4B) of the same molecule?
The value was “much higher affinity”.

And the “binding to PBPs in competition with radiolabelled penicillin” value ([8]; FIG. 4A, PFOB concentration of 3 mg/L)?
Its value is “nearly all PBPs are bound by PFOB, except PBP3”.

What about the “activity in isolation against the Enterococcus strains tested” value [9] of the same molecule?
The value was “no significant activity”.

What about the “MIC (alone) of PFOB” value [10] of the same molecule?
The value was >32 µg/mL.

What about the “MIC (alone) of PFOB” value [11] of the same molecule?
Its value is >32 µg/mL.

And the “MIC (alone) of PFOB” value [12]?
Its value is >32 µg/mL.

What about the “effect on growth (viable count, time-kill)” value [13] of the same molecule?
The value was “some inhibitory effect on growth”.

What about the MIC [14] of the same molecule?
Its MIC is 128 µg/mL (≈ 429 µM).

And the MIC [15]?
The MIC was 32 µg/mL (≈ 107 µM).

And the MIC [16]?
The MIC was >128 µg/mL.

And the MIC [17]?
Its MIC is >128 µg/mL.
